Results as given in PMC8621770, “New Compounds with Bioisosteric Replacement of Classic Choline Kinase Inhibitors Show Potent Antiplasmodial Activity” (Pharmaceutics, 2021).
Read-outs that look alike come from different tables or passages of the source.

Tests used:
P. falciparum strain 3D7 [1] = experiment: Antimalarial activity, P. falciparum lactate dehydrogenase growth inhibition assay; type: cell-based, Plasmodium falciparum; settings: Plasmodium falciparum, Erythrocyte; P. falciparum 3D7 in human erythrocytes, 72 h, LDH readout; read-out: IC50 a (In vitro IC50 values against P. falciparum)
PfCK [2] = biological target: T1, PfCK (Plasmodium falciparum, UniProt Q8IM71); experiment: Spectrophotometric coupled enzymatic assay for PfCK activity (substrate choline); type: biochemical; settings: read-out: PfCK Fractional Activity at 25 µM
T1 construct: A truncated form of PfCK (Δ79-440) featuring an N-terminal 6× His-tag; 6xHis (N); host or cells: Escherichia coli BL21 (DE3) Star
T1 sequence (Q8IM71 entry or part of it): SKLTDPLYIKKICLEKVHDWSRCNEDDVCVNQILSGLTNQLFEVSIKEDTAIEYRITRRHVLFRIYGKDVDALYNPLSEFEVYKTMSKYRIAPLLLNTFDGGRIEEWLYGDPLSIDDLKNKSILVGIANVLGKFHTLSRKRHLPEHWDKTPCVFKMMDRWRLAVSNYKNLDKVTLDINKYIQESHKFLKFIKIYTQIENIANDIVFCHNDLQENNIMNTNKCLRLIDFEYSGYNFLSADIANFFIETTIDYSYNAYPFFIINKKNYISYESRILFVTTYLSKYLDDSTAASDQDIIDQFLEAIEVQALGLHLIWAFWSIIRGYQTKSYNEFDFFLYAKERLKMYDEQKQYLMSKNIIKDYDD

[3] = Aggregation of compound solutions for the enzymatic assays; type: physicochemical; settings: even at 5 mM concentration
Text: As a result, it was difficult to measure their exact concentration, which is crucial for enzymatic assays.

P. falciparum strain 3D7 [4] = test system: P. falciparum strain 3D7; design: method as in PMID 27616047, PMID 29880399, PMID 25089811; settings: reference compounds; read-out: IC50 a (In vitro IC50 values against P. falciparum); cited from earlier work
PfCK [5] = biological target: T1, PfCK; settings: reference compounds, cited from earlier work; for inhibition of PfCK depending on substrate (in words): choline kinase or ethanolamine kinase activity; for IC50: read-out: IC50 PfCK b (compound concentration required to inhibit PfCK enzyme by 50%)

SMILES | IC50 (P. falciparum strain 3D7 [1]) [nM] | remaining activity at 25 µM (PfCK [2]) [%] | aggregation [3] | melting point [°C] | IC50 (P. falciparum strain 3D7 [4]) [nM] | inhibition of PfCK depending on substrate (in words) (PfCK [5]) | IC50 (PfCK [5]) [nM]
[Br-].c1ccc(-c2ccc(C[n+]3ccc(N4CCCC4)c4sccc43)cc2)cc1 [Fa-M2, 4-([1,1’-biphenyl]-4-ylmethyl)-7-(pyrrolidin-1-yl)thieno[3,2-b]pyridin-4-ium bromide] | 48.9 | 101 ± 13.7 | severe aggregation | 271 to 273 |  |  | 
[Br-].c1ccc(-c2ccc(C[n+]3cnc(N4CCCC4)c4ccsc43)cc2)cc1 [Fa-M3, 1-([1,1’-biphenyl]-4-ylmethyl)-4-(pyrrolidin-1-yl)thieno[2,3-d]pyrimidin-1-ium bromide] | 35.1 | 96.9 ± 18.7 | severe aggregation | 275 to 278 |  |  | 
[Br-].c1ccc(-c2ccc(C[n+]3cnc(N4CCCC4)c4sccc43)cc2)cc1 [Fa-M1, 1-([1,1’-biphenyl]-4-ylmethyl)-4-(pyrrolidin-1-yl)thieno[3,2-d]pyrimidin-1-ium bromide] | 41 | 54.6 ± 11.7 | severe aggregation | 295 to 298 |  |  | 
CN(C)c1cc[n+](Cc2ccc(OCCOc3ccc(C[n+]4ccc(N(C)C)cc4)cc3)cc2)cc1 [10a] |  |  |  |  | 16 ± 1 | no inhibition of the enzyme in its choline kinase or ethanolamine kinase activity is observed | 
CN(C)c1cc[n+](Cc2ccc(-c3ccc(C[n+]4ccc(N5CCCC5)cc4)cc3)cc2)cc1 [BR-23] |  |  |  |  | 3 ± 0.2 | only had inhibitory activity when the enzyme-substrate was ethanolamine | 276000
CN(C)c1cc[n+](Cc2ccc(CCCCc3ccc(C[n+]4ccc(N5CCCC5)cc4)cc3)cc2)cc1 [BR-25] |  |  |  |  | 2 ± 0.3 | only had inhibitory activity when the enzyme-substrate was ethanolamine | 103000
